Reference: US11357786B2, “Synthetic disugar hydrocarbons as natural analogs to control microbial behaviors” (Syracuse University, priority 2014, dated 2022)
Entries after “also recorded” stand apart in the source; their conditions may differ.

Key:
[1] = system: nonswarming P. aeruginosa mutant rhlA; test: Swarming motility of nonswarming rhlA mutant on soft agar (reactivation / agonist assay); type: cell-based, Pseudomonas aeruginosa; settings: 85 μM in soft agar (0.5%), 24 h
Method in brief: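 rhlA transposon mutant of PAO1 (3 μl, OD600 0.4–0.6) inoculated on M8 soft agar (0.2% glucose, 0.5% casamino acids, 1 mM MgSO4, 0.5% agar) with test compound to find swarming agonists. Incubated 12 h at 37 °C plus 12 h at room temperature; swarm area measured by weighing paper cut-outs of imaged swarms.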

wild type PAO1 = test: Swarming motility of wild type PAO1 on soft agar (antagonist assay); type: cell-based, Pseudomonas aeruginosa; settings: for Swarming motility of wild type PAO1: 85 μM in soft agar, 24 h; for Effect on PAO1 swarming: concentration not given
Method in brief: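 Wild-type PAO1 culture (OD600 ~0.4–0.6, 3 μl) spotted on M8 swarm agar with 0.2% glucose, 0.5% casamino acids, 1 mM MgSO4 and 0.5% agar. Plates incubated 12 h at 37 °C then 12 h at room temperature; swarm area measured by cutting and weighing printed plate images.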

PAO1 biofilm = test: Crystal violet based static biofilm inhibition assay, DSHs in LB media (Examples 2 and 4); type: cell-based, Pseudomonas aeruginosa; settings: for Inhibition of PAO1 biofilm formation (surface attached): 160 μM, 24 h, LB media; for Anti-biofilm activity (biofilm inhibition): concentration not given
Method in brief: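 PAO1 subculture (OD600 ~0.1) was grown statically in LB at 37° C for 24 h with or without DSHs (screened at 160 μM). Surface-attached biofilm was then stained with 0.1% crystal violet, solubilised in 30% AcOH and read at 600 nm. Values are the mean of 4 wells.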

[2] = system: planktonic Pseudomonas aeruginosa (PAO1); test: Planktonic bacterial growth (OD600 growth curve); type: cell-based; settings: 160 μM, LB
Procedure: Antimicrobial activities of disaccharide hydrocarbons against planktonic growth. Overnight inoculum of PAO1 was sub-cultured to an OD600˜0.1 and then aliquoted (200 μL) into the wells of a micro-titer plate and DSHs (˜160 μM) were then added to assigned wells. Wells with no-agents were created as a positive control. The micro-titer plate was then placed in a rotary shaker (250 rpm at 37° C.) and optical density was measured after regular intervals of time using Biotek ELx800 ™ absorbance microplate reader (BioTek Instruments, Inc., Winooski, Vt.) using Gen5™ data analysis software. The OD600 values were taken in sterile conditions over 24 h. The OD600 values were plotted against time to obtain a growth curve for planktonic growth with or without agents.
Optical density was measured using Biotek ELx800 ™ absorbance microplate reader (BioTek Instruments, Inc., Winooski, Vt.) using Gen5™ data analysis software. The OD600 values were taken in sterile conditions at 0, 2, 4, 6, 8, 10, 12, and 24 h after bacterial culture inoculation in 96-well polystyrene plate with and without agents.

PAO1 and rhlA = test: Bacterial growth on soft agar swarm plate; type: cell-based, Pseudomonas aeruginosa
Procedure: Swarm agar plates were based on M8 medium supplemented with 0.2% glucose, 0.5% casamino acid, 1 mM MgSO4 and […]. 17 For each set of experiment all the swarm plates were poured from same batch of agar and allowed to dry for 1 h before inoculation of bacteria. Bacterial culture (3 μl) (wild type PAO1 or rhlA mutant) with OD600 between […] was inoculated on the solidified agar plates. Swarm agar plates were incubated at 37° C. for 12 h and then incubated for additional 12 h at room temp. Chronological images of swarm plates were taken using a camera. To measure swarming area, sizes of the petridish in all swarming images were adjusted to a pre-assigned diameter and images were printed on copying paper (Xerox-business 4200). Weight of a 1 cm^2 copy paper square was roughly ˜8.0 mg. swarming images on the copy paper were cut and weighed, the swarm area was calculated by dividing the weight of image by weight of 1 cm^2 square (8 mg).

PAO1-EGFP = test: Fluorescence adhesion assay on polystyrene, DSHs (Examples 2 and 4); type: cell-based, Pseudomonas aeruginosa; settings: 160 μM
Procedure: The ability of DSHs was tested to inhibit Pseudomonas aeruginosa adhesion, biofilm and to disperse pre-formed biofilm. To quantify the amount of PAO1/EGFP attached on the surface of micro titer plates with or without the synthesized DSHs, fluorescence emitted by green fluorescent proteins (GFP) was quantified (see supporting info for details). Crystal violet (CV) based static biofilm assay (see supporting info) was used to screen the anti-biofilm potencies of all synthesized agents. Both surface attached (SA) (FIG. 17) and total (SA+air-liquid interface) biofilm of P. aeruginosa was quantified. […] CV assays were also used to quantify the amount of P. aeruginosa biofilm remaining after dispersion experiments (FIG. 19). Initially, all agents were screen for anti-biofilm activities (both inhibition and dispersion) at 160 μM. […]
The effect that DSHs have on the adhesion of PAO1-EGFP on polystyrene surface (microtiter plate) was also examined. […] After 24-hours, the fluorescent signal obtained from surface adhered PAO1-EGFP was measured. Percent reduction in fluorescence was calculated by comparing fluorescent signal from PAO1-EGFP grown in LB-media with the signal from wells that had DSHs (FIG. 29A). […] After 24 hours, the surface attached biofilms adhering to the bottom of the wells were stained with crystal-violet dye and the biofilm was quantified by measuring absorbance at 600 nm (OD600). […]

1-day old PAO1 biofilm = test: Crystal violet assay for dispersion of 1-day old biofilm, DSHs (Examples 2 and 4); type: cell-based, Pseudomonas aeruginosa; settings: 160 μM, another 24 h
Procedure: The effect that DSHs have on the adhesion of PAO1-EGFP on polystyrene surface (microtiter plate) was also examined. PAO1-EGFP is a P. aeruginosa strain that constitutively expresses green fluorescent protein. In the adhesion assays, PAO1-EGFP was grown in microtiter plate for 24-hours in LB-media with (160 μM) or without DSHs. After 24-hours, the fluorescent signal obtained from surface adhered PAO1-EGFP was measured. Percent reduction in fluorescence was calculated by comparing fluorescent signal from PAO1-EGFP grown in LB-media with the signal from wells that had DSHs (FIG. 29A). To study the effect of DSHs on biofilm formation, Pseudomonas aeruginosa (PAO1) was grown in LB-media with (160 μM) or without DSHs at 37° C. under static conditions within wells of microtiter plates. After 24 hours, the surface attached biofilms adhering to the bottom of the wells were stained with crystal-violet dye and the biofilm was quantified by measuring absorbance at 600 nm (OD600). The percent inhibition was calculated by comparing biofilm content of wells with no added agents (control) with the biofilm content from wells that had 160 μM of DSHs (FIG. 29A). Similar to inhibition, the surface attached biofilm after dispersion with DSHs was quantified with crystal-violet staining and absorbance measurement at 600 nm, except that for dispersion, biofilm was first grown for 1 day in just LB-media without any DSHs after which DSHs were added and plates were incubated for additional 24 hours followed by quantification (FIG. 29B).
Crystal violet based assay for quantifying dispersion of 1-day old PAO1 biofilms were Plate for set up similar to inhibition assay with a slight modification. Wells of the micro-titer plate was inoculated with (200 μL) bacterial subculture (PAO1 subculture OD600 ˜0.1). The plates were incubated at 37° C. for 24 hours to allow biofilm formation. After 24 hours, bacterial culture was gently pipetted out and appropriate volume of DSH were added followed by addition of fresh LB medium (200 μL). The microtiter plate was incubated for an additional 24 hours at 37° C., following which, similar to work up of inhibition assay, culture was removed, wells were washed and CV-dye was introduced, followed by washing and destaining with 30% AcOH solution in water and quantification at 600 nm. Here again, only the surface attached biofilm dispersed was reported by comparing wells with DSHs with wells with no agent.
Dose dependence assays for biofilm inhibition and dispersion. […] Both for biofilm inhibition and dispersion, predetermined volumes of DSH stocks were added to the assigned wells to span a concentration range between 0.5 μM-170 μM. Percent biofilm inhibition of dispersion was calculated by comparing to wells with no agent. The percent biofilm inhibition or dispersion was plotted versus concentration of DSHs. The linear values were logarithmically curve fitted using equation […]. The half maximal inhibitory concentration for both biofilm inhibition and dispersion (IC50 and DC50) were thus obtained.

Compound: CC(C)=CCC/C(C)=C/CC/C(C)=C/CO[C@@H]1O[C@H](CO)[C@@H](O[C@@H]2O[C@H](CO)[C@@H](O)[C@H](O)[C@H]2O)[C@H](O)[C@H]1O [FβC (11), farnesyl-β-cellobioside]
- Swarming motility of rhlA mutant [1]: weak activation of rhlA swarming motility
- Swarming motility of wild type PAO1 (wild type PAO1): weak promotion of swarming motility of wild type PAO1
- Effect on PAO1 swarming (wild type PAO1): no apparent effect on PAO1 swarming
- Inhibition of PAO1 biofilm formation (surface attached) (PAO1 biofilm; listed as 11: FβC, 160 µM): poor anti-biofilm activity
- Anti-biofilm activity (biofilm inhibition) (PAO1 biofilm): did not show anti-biofilm activities
- Inhibition of planktonic growth of Pseudomonas aeruginosa [2]: did not inhibit the planktonic growth
- Bacterial growth on soft-agar plate (PAO1 and rhlA; 160 μM, PAO1 and rhlA): complete abolition of bacterial growth on the soft-agar plate
- Bacterial growth on soft agar (~0.5%) plate (PAO1 and rhlA; PAO1, concentration not stated): inhibited bacterial (PAO1) growth on a soft agar

Compound: dodecyl-β-cyclodextrin [DβCDS (18)]
- Swarming motility of rhlA mutant [1]: no significant effect on the swarming motility
- Swarming motility of wild type PAO1 (wild type PAO1): no significant effect on the swarming motility
- Effect on PAO1 swarming (wild type PAO1): no apparent effect on PAO1 swarming
- Inhibition of PAO1 biofilm formation (surface attached) (PAO1 biofilm): insignificant biofilm inhibition
- Inhibition of PAO1 biofilm formation (surface attached) (PAO1 biofilm; listed as 18: DβCDS, 160 µM): increased the biofilm content
- Anti-biofilm activity (biofilm inhibition) (PAO1 biofilm): weak anti-biofilm activity; also recorded: did not show anti-biofilm activities
- Adhesion inhibition of PAO1-EGFP on polystyrene (PAO1-EGFP): 29%
- Dispersion of 24-h old PAO1 biofilm (1-day old PAO1 biofilm): promoted biofilm formation instead of causing dispersion
